Where a name gives a salt, the structure may show the parent alone.
Tested on: Acinetobacter baumannii ATCC 17961
Assay: Antimicrobial susceptibility testing: 90% growth inhibitory concentration (IC90) determination
Format: cell-based
Details: ATCC17961, Acinetobacter baumannii ATCC 17961, Iso-Sensitest broth, read-out: ATCC 17961 IC90
Outline: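 Growth was followed kinetically by OD600 at 20-min intervals for 16 h at 35±2 °C, with ~5×10^5 CFU/ml in Iso-Sensitest broth. Compounds were tested as twofold dilutions (e.g. 50–0.097 μM final). The concentration giving 90% inhibition of log-phase growth was reported.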

IC90	SMILES
423 nM	Cn1c(-c2cn(C3CC3)nc2C(F)(F)F)cnc1C(=O)Nc1ccc(C(=O)N[C@H]2[C@@H]3CN(C(=O)N[C@@H]4CCC[C@@H]4N)C[C@@H]32)c(Cl)c1 [Example 334, exo-N-((1R,2S)-2-aminocyclopentyl)-6-(2-chloro-4-(5-(1-cyclopropyl-3-(trifluoromethyl)-1H-pyrazol-4-yl)-1-methyl-1H-imidazole-2-carboxamido)benzamido)-3-azabicyclo[3.1.0]hexane-3-carboxamide formate]
426 nM	Cn1c(-c2cn(CC3CCC3)nc2C(F)(F)F)cnc1C(=O)Nc1ccc(C(=O)N2CCN(C(=O)[C@@H]3C[C@@H](O)CN3)CC2)c(Cl)c1 [Example 335, N-(3-chloro-4-(4-((2S,4R)-4-hydroxypyrrolidine-2-carbonyl)piperazine-1-carbonyl)phenyl)-5-(1-(cyclobutylmethyl)-3-(trifluoromethyl)-1H-pyrazol-4-yl)-1-methyl-1H-imidazole-2-carboxamide bis(2,2,2-trifluoroacetate)]
426 nM	Cn1c(-c2cn(CC(F)F)nc2C(F)(F)F)cnc1C(=O)Nc1ccc(C(=O)N2CCNCC2)c(Cl)c1 [Example 336, N-(3-chloro-4-(piperazine-1-carbonyl)phenyl)-5-(1-(2,2-difluoroethyl)-3-(trifluoromethyl)-1H-pyrazol-4-yl)-1-methyl-1H-imidazole-2-carboxamide formate]
427 nM	Cn1c(-c2cn(C3CC3)nc2C(F)(F)F)cnc1C(=O)Nc1ccc(C(=O)N2CCN(S(=O)(=O)N3CCNCC3)CC2)c(Cl)c1 [Example 338, N-(3-chloro-4-(4-(piperazin-1-ylsulfonyl)piperazine-1-carbonyl)phenyl)-5-(1-cyclopropyl-3-(trifluoromethyl)-1H-pyrazol-4-yl)-1-methyl-1H-imidazole-2-carboxamide formate]
427 nM	Cn1c(-c2cn(C3CC3)nc2C(F)(F)F)cnc1C(=O)Nc1ccc(C(=O)N2CCC(C(=O)N[C@H]3C[C@H](N)C3)CC2)c(Cl)c1 [Example 339, N-(3-aminocyclobutyl)-1-[2-chloro-4-[[5-[1-cyclopropyl-3-(trifluoromethyl)pyrazol-4-yl]-1-methyl-imidazole-2-carbonyl]amino]benzoyl]piperi-dine-4-carboxamide; formic acid]
428 nM	CCc1cc(NC(=O)c2ncc(-c3cn(CC#N)nc3C(F)(F)F)n2C)ccc1C(=O)N1CCN(C(=O)[C@H]2C[C@H](N)C2)CC1 [Example 340, N-[4-[4-(3-aminocyclobutanecarbonyl)piper-azine-1-carbonyl]-3-ethyl-phenyl]-5-[1-(cyanomethyl)-3-(trifluoromethyl)pyrazol-4-yl]-1-methyl-imidazole-2-carboxamide; formic acid]
430 nM	Cn1c(-c2cn(C3CC3(F)F)nc2C(F)(F)F)cnc1C(=O)Nc1ccc(C(=O)NC2CNCC2O)c(Cl)c1 (stereo not drawn) [Example 341, N-(3-chloro-4-((4-hydroxypyrrolidin-3-yl)carbamoyl)phenyl)-5-(1-(2,2-difluorocyclopropyl)-3-(trifluoromethyl)-1H-pyrazol-4-yl)-1-methyl-1H-imidazole-2-carboxamide formate]
442 nM	C#CCn1cc(-c2cnc(C(=O)Nc3ccc(S(C)(=O)=NCCCN)c(C)c3)n2C)c(C(F)(F)F)n1 (stereo not drawn) [Example 342, N-[4-[N-(3-aminopropyl)-S-methyl-sulfonimidoyl]-3-methyl-phenyl]-1-methyl-5-[1-prop-2-ynyl-3-(trifluoromethyl)pyrazol-4-yl]imidazole-2-carboxamide; formic acid]
442 nM	Cn1c(-c2cn(CC#N)nc2C(F)(F)F)cnc1C(=O)Nc1ccc(C(=O)N2CCN(C(=O)NCC3(O)CNC3)CC2)c(Cl)c1 [Example 343, 4-[2-chloro-4-[[5-[1-(cyanomethyl)-3-(trifluoromethyl)pyrazol-4-yl]-1-methyl-imidazole-2-carbonyl]amino]benzoyl]-N-[(3-hydroxyazetidin-3-yl)methyl]piperazine-1-carboxamide; formic acid]
